Source: article PMC10794144, “A novel antibiotic class targeting the lipopolysaccharide transporter” (Nature, 2024)
Values after ≈ are worked out from the molar mass of the structure shown.

Legend:
A. baumannii = assay: microbe, parasite or virus in culture
In short: (§1)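 MIC was taken as the lowest concentration without visible growth, or past which OD600 no longer fell. Testing followed CLSI M07 and M100 broth microdilution, using 0.5 McFarland-derived inocula in CAMHB (LB for A. baylyi isolates).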

E. coli ATCC 25922 = assay: microbe, parasite or virus in culture
In short: as §1

CN1C(=O)[C@H](CCCN)NC(=O)[C@H](CCCN)NCc2ccccc2Sc2ccccc2CNC(=O)[C@@H]1Cc1c[nH]c2ccccc12 [RO7036668]
MIC range (A. baumannii; 10 MDR isolates, CAMHB, MCPs read at 80% growth inhibition): 1 to 16 µg/mL | MIC90 (A. baumannii; Acinetobacter baumannii): 16 µg/mL (≈ 24.4 µM) | MIC (A. baumannii; Acinetobacter baumannii, ATCC19606, ATCC 19606, CAMHB, MCPs read at 80% growth inhibition): 4 µg/mL (≈ 6.1 µM) | MIC (E. coli ATCC 25922; CAMHB, mode of at least three replicates (RO7036668 one replicate)): >64 µg/mL | MIC (E. coli ATCC 25922; Escherichia coli, ATCC25922): > 64 µg/mL
